Experimental data from US9492428B2, “Compounds, compositions, pharmaceutical compositions, and methods of use” (University of Louisville Research Foundation, Inc., priority 2011, dated 2016).
In brackets after ≈: the same amount, converted by molar mass.

Assays:
RWPE-1 cells = assay: MTT assay (cytotoxicity) in RWPE-1; assay type: cell-based; conditions: Homo sapiens, FIG. 4, read-out: GI50 against RWPE-1
From the text: FIG. 4. Bioassay of compound I-1, compound I-2, and compound I-3. SPA14-3-2 is pure compound I-2. SPA14-3-3 is pure compound I-3. SPA14-3-4 is pure compound I-1. MTT assays using compound I-1, compound I-2, and compound I-3 against DU145 and RWPE-1 cells lines.
Isolation, NMR, and X-ray crystallographic analyses. Leaves, stems, and few fruits of Physalis angulate L (Solanaceae) were collected in Rio Domingusa. Kuith/Barranquita, Amazonas Department, Northeastern Peru, and identified by the team led by Walter Lewis (collection voucher 18597, Ext. 1159). Dried and grounded material (46 g) was extracted with ethanol (1 L, 95%) for 7 days. The evaporated crude extract (6.26 g) was denoted SPA. An aliquot (1.5 g) of SPA was partitioned between dichloromethane (40 mL) and water (40 mL), affording two fractions: organic (SPA1, 500 mg) and aqueous (SPA2, 600 mg). All MTT assays were performed as described in Bates et al. “G-Rich Oligonucleotides for Cancer Treatment” Chapter 21 of Methods in Molecular Biology, Gene Therapy of Cancer, Wolfgang Walther and Ulrike S. Stein (eds.), Vol. 542, 2009, Humana Press. […] SPA14-3 (30 mg) was treated on an HPLC using a reverse phase C18 column eluted in gradient mode of methanol and water (from 80% methanol to 100% methanol) and detected at 254 nm, yielding SPA14-3-1 (0 mg), SPA14-3-2 (1.2 mg of pure compound I-2), SPA14-3-3 (4.1 mg of pure compound I-3), and SPA14-3-4 (18 mg of pure compound I-1).
General Experimental Procedure. Compound I-1 was isolated as described in Example Set 1, above. For samples of compound I-1 used in Example Set 2, HPLC and NMR indicated a purity of at least 95%. All experiments described in Example Set 2 were repeated at least two or three times. All MTT assays were performed according to Bates et al. “G-Rich Oligonucleotides for Cancer Treatment” Chapter 21 of Methods in Molecular Biology, Gene Therapy of Cancer, Wolfgang Walther and Ulrike S. Stein (eds.), Vol. 542, 2009, Humana Press.

[1] = tested on: Prostate cancer cells (DU145 or PC3) or a non-malignant epithelial cells (RWPE-1); assay: MTT cell proliferation assay, 5 days, cancer versus non-malignant cells; assay type: cell-based, human; conditions: after five days of treatment, FIG. 8C
Procedure: FIG. 8. Cell proliferation assay. (A) DU145 or PC3 prostate cancer were plated at a density of 1,500 cells per well in 96-well plates and incubated 18 hours at 37° C. to allow adherence. They were untreated or treated by addition of different concentrations of compound I-1 (which were added directly to the medium) or vehicle (DMSO), and proliferation was measured using a 3-(4,5-dimethylthiazol-2-yl)-2,5-diphenyltetrazolium bromide MTT assay after 3 days of treatment. Points, mean of triplicate normalized samples to vehicle sample; bars, SE. (B) GI50 after 3 days of treatment. (C) Prostate cancer cells (DU145 or PC3) or a non-malignant epithelial cells (RWPE-1) were plated at a density of 1,000 cells per well in 96-well plates and incubated 18 hours at 37° C. to allow adherence. They were untreated or treated by addition of different concentrations of compound I-1 (added directly to the medium) or vehicle (DMSO), and proliferation was by MTT assay after 5 days of treatment. Points, mean of triplicate normalized samples to vehicle sample; bars, SE.
General Experimental Procedure. Compound I-1 was isolated as described in Example Set 1, above. For samples of compound I-1 used in Example Set 2, HPLC and NMR indicated a purity of at least 95%. All experiments described in Example Set 2 were repeated at least two or three times. […]

DU145 cells = assay: Trypan blue exclusion assay (cell death); assay type: cell-based, human; conditions: 10 μM, 72 h
Procedure: FIG. 12. Trypan blue exclusion assay to determine cell death. DU145 prostate cancer cells were left untreated or treated with 10 μM compound I-1 or with vehicle (DMSO) for 72 h. After treatment, all cells (both adherent and floating) were harvested, stained with trypan blue, and counted immediately to determine the percentage of non-viable cells (stained blue). Columns represent the mean of three independent experiments, bars represent standard error, and numbers above each column represent the percentage of blue cells in the sample.
Compound I-1 promotes cell death by apoptosis. Because prolonged cell cycle arrest can cause induction of cell death, we next investigated the viability of prostate cancer cells treated with compound I-1. To begin, we used the trypan blue exclusion assay, which is based on the principle that live cells will exclude membrane-impermeable dyes such as trypan blue, whereas trypan blue will get inside the dead cells and stain them. […] To determine whether apoptosis (programmed cell death) is the cause of cell death induced by compound I-1, we examined the cells for biochemical and morphological markers of apoptosis. […]

C[C@@H]1CC[C@H]2C3C(O[C@]4([C@]5(O)CC6(C)C(=O)OC5C[C@@]6(C)O)CC[C@@]31O4)[C@H]1O[C@]13CC=CC(=O)[C@]23C (stereo partly drawn) [I-1] was tested, and the GI50 (RWPE-1 cells) was ~1.2 µg/mL (≈ 2.4 µM), the “inhibition of cancer cell growth as compared to non-malignant cell growth” value [1] was “selectivity inhibit cancer cell growth” and the “dead cells (trypan blue)” value (DU145 cells) was ~90%.
